Source: ChEMBL document CHEMBL3621075, “Discovery of benzothiazine derivatives as novel, orally-active anti-epileptic drug candidates with broad anticonvulsant effect” (Bioorg Med Chem Lett, 2015)
The source made the active and inactive calls.

Tests used:
[1] = test system: Mus musculus; assay: Anticonvulsant activity in mouse assessed as protection against subcutaneous pentylenetetrazol-induced seizure at 100 mg/kg; type: functional, organism-based
[2] = test system: Mus musculus; assay: Anticonvulsant activity in mouse assessed as protection against maximal electroshock-induced seizure at 25 mg/kg; type: functional, organism-based
[3] = test system: Rattus norvegicus; assay: Anticonvulsant activity in rat amygdala kindling model assessed as change in after-discharge duration at 30 mg/kg, po; type: functional
[4] = test system: Mus musculus; assay: Anticonvulsant activity in mouse assessed as protection against maximal electroshock-induced seizure at 50 mg/kg; type: functional, organism-based
[5] = test system: Rattus norvegicus; assay: Anticonvulsant activity in rat amygdala kindling model assessed as change in after-discharge threshold at 30 mg/kg, po; type: functional
[6] = test system: Mus musculus; assay: Anticonvulsant activity in mouse assessed as protection against maximal electroshock-induced seizure at 100 mg/kg; type: functional, organism-based
[7] = test system: Rattus norvegicus; assay: Anticonvulsant activity in rat amygdala kindling model assessed as change in after-discharge duration at 100 mg/kg, po; type: functional
[8] = test system: Rattus norvegicus; assay: Anticonvulsant activity in rat amygdala kindling model assessed as change in after-discharge threshold at 100 mg/kg, po; type: functional
[9] = test system: Rattus norvegicus; assay: Anticonvulsant activity in rat amygdala kindling model assessed as decrease in rearing and bilateral forelimb clonus seizure 100 mg/kg, po; type: functional, organism-based
[10] = test system: Mus musculus; assay: Anticonvulsant activity in mouse assessed as protection against maximal electroshock-induced seizure at 400 mg/kg; type: functional, organism-based
[11] = test system: Mus musculus; assay: Anticonvulsant activity in ip-dosed mouse assessed as protection against subcutaneous pentylenetetrazol-induced seizure; type: functional; conditions: sc
[12] = organism: Mus musculus; assay: Anticonvulsant activity in mouse assessed as protection against maximal electroshock-induced seizure; type: functional
[13] = Permeability of compound at pH 5.0 by PAMPA assay; type: physicochemical; conditions: read-out: permeability
[14] = Metabolic stability in rat liver microsome assessed as recovery of parent compound after 30 mins in presence NADPH; type: ADME; conditions: liver microsomes, read-out: Drug recovery
[15] = Permeability of compound at pH 7.4 by PAMPA assay; type: physicochemical; conditions: read-out: permeability
[16] = test system: Mus musculus; assay: Anticonvulsant activity in mouse assessed as protection against subcutaneous pentylenetetrazol-induced seizure at 400 mg/kg; type: functional, organism-based

| SMILES | Activity [10] | Papp [13] [×10⁻⁶ cm/s] | remaining at 0.5 h [14] [%] | Papp [15] [×10⁻⁶ cm/s] | also measured |
| --- | --- | --- | --- | --- | --- |
| CCNC(=O)C1=C(Cl)c2ccccc2S(=O)(=O)N1C |  |  |  |  | Activity [1]: Active; Activity [2]: inactive; Activity [3]: -20%; Activity [4]: Active; Activity [5]: 10%; Activity [6]: Active; Activity [7]: -18.2%; Activity [8]: 40.5%; Activity [9]: Active |
| O=C(NC1CC1)C1=C(Cl)c2ccccc2S(=O)(=O)N1Cc1ccccc1 | inactive |  |  |  |  |
| NC(=O)N1c2ccccc2C=Cc2ccccc21 [CARBAMAZEPINE] |  |  |  |  | ED50 [11]: > 100 mg/kg; ED50 [12]: 13 mg/kg |
| CN1C(C(=O)NCC(F)F)=Cc2ccccc2S1(=O)=O | Active |  |  |  |  |
| CN1C(C(=O)NC2CC2)=C(Cl)c2ccccc2S1(=O)=O | Active | 12 | > 90 | 12 |  |
| CC(=O)NCCNC(=O)C1=Cc2ccccc2S(=O)(=O)N1C | inactive |  |  |  |  |
| CNC(=O)C1=Cc2ccccc2S(=O)(=O)N1C | Active | 5.9 | > 90 | 5.9 |  |
| CN(C)C(=O)C1=Cc2ccccc2S(=O)(=O)N1C | Active |  |  |  |  |
| CCNC(=O)C1=Cc2ccccc2S(=O)(=O)N1C | Active | 5.9 | > 90 | 5.9 | Activity [16]: Active |
| CC1=C(C(=O)NC2CC2)N(C)S(=O)(=O)c2ccccc21 | Active | 12 | > 90 | 12 | Activity [6]: inactive |
| CN1C(C(=O)NC2CC2)=Cc2ccccc2S1(=O)=O | Active | 5.9 | > 90 | 5.9 | Activity [6]: Active; Activity [16]: Active |
| O=C1NC(=O)C(c2ccccc2)(c2ccccc2)N1 [PHENYTOIN] |  |  |  |  | ED50 [11]: > 300 mg/kg; ED50 [12]: 8 mg/kg |
| CCC1=C(C(=O)NC2CC2)N(C)S(=O)(=O)c2ccccc21 | Active |  |  |  |  |
| CN1C(C(=O)NC2CC2)=C(c2ccccc2)c2ccccc2S1(=O)=O |  |  |  |  | Activity [16]: inactive |
| NS(=O)(=O)Cc1noc2ccccc12 [ZONISAMIDE] |  |  |  |  | ED50 [11]: > 500 mg/kg; Activity [3]: 7%; Activity [5]: 5.1%; Activity [7]: -37.6%; Activity [8]: 45.9%; ED50 [12]: 20 mg/kg |
| CCN1C(C(=O)NC2CC2)=C(Cl)c2ccccc2S1(=O)=O | Active |  |  |  |  |
| CCCNC(=O)C1=Cc2ccccc2S(=O)(=O)N1C | Active | 5.9 | > 90 | 5.9 | Activity [4]: inactive; Activity [16]: Active |
| CN1C(C(=O)NC2CC2)=C(C2CC2)c2ccccc2S1(=O)=O | Active | 12 | > 90 | 12 |  |
| CC(C)NC(=O)C1=Cc2ccccc2S(=O)(=O)N1C | Active |  |  |  | Activity [1]: inactive; Activity [6]: inactive |
